# Experimental data: ChEMBL document CHEMBL3272271, “Folate antagonists. 13. 2,4-Diamino-6-](alpha,alpha,alpha-trifluoro-m-tolyl)thio]quinazoline and related 2,4-diamino-6-[(phenyl- and naphthyl)thio]quinazolines, a unique class of antimetabolites with extraordinary antimalarial and antibacterial effects” (J Med Chem, 1978)
# The source made the active and inactive calls. No cut-off for these calls is given here.
# Tests used:
# Plasmodium berghei [1] = assay: Antimalarial activity against Plasmodium berghei infected in mouse assessed as increase in mean survival days of host at 20 mg/kg, sc administered 72 hrs after infection relative to control; assay type: functional; details: route subcutaneous
# Plasmodium berghei [2] = assay: Antimalarial activity against Plasmodium berghei infected in mouse assessed as increase in mean survival days of host at 40 mg/kg, sc administered 72 hrs after infection relative to control; assay type: functional; details: route subcutaneous
# Plasmodium berghei [3] = assay: Antimalarial activity against Plasmodium berghei infected in mouse assessed as disease cure from parasite infection at 40 mg/kg, sc administered 72 hrs after infection; assay type: functional, organism-based; set-up: dose 40 mg/kg
# Plasmodium berghei [4] = assay: Antimalarial activity against Plasmodium berghei infected in mouse assessed as disease cure from parasite infection at 20 mg/kg, sc administered 72 hrs after infection; assay type: functional, organism-based; set-up: dose 20 mg/kg
# Plasmodium gallinaceum [5] = assay: Antimalarial activity against sporozoite-induced Plasmodium gallinaceum infected in white leghorn chicken assessed as disease cure from parasite infection at 20 mg/kg, sc administered 72 hrs after infection; assay type: functional, organism-based; set-up: dose 20 mg/kg
# Pseudomonas aeruginosa = assay: Antibacterial activity against Pseudomonas aeruginosa 28 by gradient plate test; assay type: functional
# Plasmodium gallinaceum [6] = assay: Antimalarial activity against sporozoite-induced Plasmodium gallinaceum infected in white leghorn chicken assessed as disease cure from parasite infection at 10 mg/kg, sc administered 72 hrs after infection; assay type: functional, organism-based; set-up: dose 10 mg/kg
# Plasmodium gallinaceum [7] = assay: Antimalarial activity against trophozoite-induced Plasmodium gallinaceum infected in white leghorn chicken assessed as increase in mean survival days of host at 40 mg/kg, sc administered 72 hrs after infection relative to control; assay type: functional; details: route subcutaneous
# Plasmodium gallinaceum [8] = assay: Antimalarial activity against sporozoite-induced Plasmodium gallinaceum infected in white leghorn chicken assessed as disease cure from parasite infection at 80 mg/kg, sc administered 72 hrs after infection; assay type: functional, organism-based; set-up: dose 80 mg/kg
# Plasmodium gallinaceum [9] = assay: Antimalarial activity against trophozoite-induced Plasmodium gallinaceum infected in white leghorn chicken assessed as increase in mean survival days of host at 5 mg/kg, sc administered 72 hrs after infection relative to control; assay type: functional; details: route subcutaneous
# Plasmodium berghei [10] = assay: Antimalarial activity against Plasmodium berghei infected in mouse assessed as disease cure from parasite infection at 160 mg/kg, sc administered 72 hrs after infection; assay type: functional, organism-based; set-up: dose 160 mg/kg
# Plasmodium gallinaceum [11] = assay: Antimalarial activity against trophozoite-induced Plasmodium gallinaceum infected in white leghorn chicken assessed as increase in mean survival days of host at 80 mg/kg, sc administered 72 hrs after infection relative to control; assay type: functional; details: route subcutaneous
# Plasmodium gallinaceum [12] = assay: Antimalarial activity against trophozoite-induced Plasmodium gallinaceum infected in white leghorn chicken assessed as disease cure from parasite infection at 80 mg/kg, sc administered 72 hrs after infection; assay type: functional, organism-based; set-up: dose 80 mg/kg
# Plasmodium gallinaceum [13] = assay: Antimalarial activity against trophozoite-induced Plasmodium gallinaceum infected in white leghorn chicken assessed as increase in mean survival days of host at 20 mg/kg, sc administered 72 hrs after infection relative to control; assay type: functional; details: route subcutaneous
# Shigella sonnei = assay: Antibacterial activity against Shigella sonnei C-10 by gradient plate test; assay type: functional
# Enterococcus faecalis = assay: Antibacterial activity against Streptococcus faecalis MGH-2 by gradient plate test; assay type: functional
# Plasmodium berghei [14] = assay: Antimalarial activity against Plasmodium berghei infected in mouse assessed as increase in mean survival days of host at 5 mg/kg, sc administered 72 hrs after infection relative to control; assay type: functional; details: route subcutaneous
# Escherichia coli = assay: Antibacterial activity against Escherichia coli Vogel by gradient plate test; assay type: functional
# Staphylococcus aureus [15] = assay: Antibacterial activity against drug-resistant Staphylococcus aureus S18713 by gradient plate test; assay type: functional
# Plasmodium berghei [16] = assay: Antimalarial activity against Plasmodium berghei infected in mouse assessed as increase in mean survival days of host at 10 mg/kg, sc administered 72 hrs after infection relative to control; assay type: functional; details: route subcutaneous
# Plasmodium gallinaceum [17] = assay: Antimalarial activity against trophozoite-induced Plasmodium gallinaceum infected in white leghorn chicken assessed as increase in mean survival days of host at 1.25 mg/kg, sc administered 72 hrs after infection relative to control; assay type: functional; details: route subcutaneous
# Plasmodium gallinaceum [18] = assay: Antimalarial activity against trophozoite-induced Plasmodium gallinaceum infected in white leghorn chicken assessed as disease cure from parasite infection at 320 mg/kg, sc administered 72 hrs after infection; assay type: functional, organism-based; set-up: dose 320 mg/kg
# Plasmodium berghei [19] = assay: Antimalarial activity against Plasmodium berghei infected in mouse assessed as increase in mean survival days of host at 2.5 mg/kg, sc administered 72 hrs after infection relative to control; assay type: functional; details: route subcutaneous
# Plasmodium gallinaceum [20] = assay: Antimalarial activity against sporozoite-induced Plasmodium gallinaceum infected in white leghorn chicken assessed as disease cure from parasite infection at 40 mg/kg, sc administered 72 hrs after infection; assay type: functional, organism-based; set-up: dose 40 mg/kg
# Staphylococcus aureus [21] = assay: Antibacterial activity against Staphylococcus aureus UC-96 by gradient plate test; assay type: functional
# Plasmodium gallinaceum [22] = assay: Antimalarial activity against trophozoite-induced Plasmodium gallinaceum infected in white leghorn chicken assessed as disease cure from parasite infection at 160 mg/kg, sc administered 72 hrs after infection; assay type: functional, organism-based; set-up: dose 160 mg/kg
# Plasmodium berghei [23] = assay: Antimalarial activity against Plasmodium berghei infected in mouse assessed as disease cure from parasite infection at 10 mg/kg, sc administered 72 hrs after infection; assay type: functional, organism-based; set-up: dose 10 mg/kg
# Plasmodium gallinaceum [24] = assay: Antimalarial activity against sporozoite-induced Plasmodium gallinaceum infected in white leghorn chicken assessed as disease cure from parasite infection at 160 mg/kg, sc administered 72 hrs after infection; assay type: functional, organism-based; set-up: dose 160 mg/kg
# Plasmodium berghei [25] = assay: Antimalarial activity against Plasmodium berghei infected in mouse assessed as increase in mean survival days of host at 1.25 mg/kg, sc administered 72 hrs after infection relative to control; assay type: functional; details: route subcutaneous
# Plasmodium berghei [26] = assay: Antimalarial activity against Plasmodium berghei infected in mouse assessed as disease cure from parasite infection at 320 mg/kg, sc administered 72 hrs after infection; assay type: functional, organism-based; set-up: dose 320 mg/kg
# Plasmodium berghei [27] = assay: Antimalarial activity against trophozoite-induced Plasmodium berghei infected in mouse assessed as daily dose required to suppression of 90% parasite infection administered with diet for 6 days; assay type: functional
# Plasmodium gallinaceum [28] = assay: Antimalarial activity against trophozoite-induced Plasmodium gallinaceum infected in white leghorn chicken assessed as increase in mean survival days of host at 10 mg/kg, sc administered 72 hrs after infection relative to control; assay type: functional; details: route subcutaneous
# Plasmodium berghei [29] = assay: Antimalarial activity against Plasmodium berghei infected in mouse assessed as disease cure from parasite infection at 640 mg/kg, sc administered 72 hrs after infection; assay type: functional, organism-based; set-up: dose 640 mg/kg
# Plasmodium gallinaceum [30] = assay: Antimalarial activity against trophozoite-induced Plasmodium gallinaceum infected in white leghorn chicken assessed as increase in mean survival days of host at 2.5 mg/kg, sc administered 72 hrs after infection relative to control; assay type: functional; details: route subcutaneous
# Plasmodium berghei [31] = assay: Antimalarial activity against Plasmodium berghei infected in mouse assessed as disease cure from parasite infection at 80 mg/kg, sc administered 72 hrs after infection; assay type: functional, organism-based; set-up: dose 80 mg/kg
# Plasmodium gallinaceum [32] = assay: Antimalarial activity against trophozoite-induced Plasmodium gallinaceum infected in white leghorn chicken assessed as increase in mean survival days of host at 0.63 mg/kg, sc administered 72 hrs after infection relative to control; assay type: functional; details: route subcutaneous
# Plasmodium gallinaceum [33] = assay: Antimalarial activity against sporozoite-induced Plasmodium gallinaceum infected in white leghorn chicken assessed as disease cure from parasite infection at 320 mg/kg, sc administered 72 hrs after infection; assay type: functional, organism-based; set-up: dose 320 mg/kg
# Plasmodium gallinaceum [34] = assay: Antimalarial activity against sporozoite-induced Plasmodium gallinaceum infected in white leghorn chicken assessed as increase in mean survival days of host at 10 mg/kg, sc administered 72 hrs after infection relative to control; assay type: functional; details: route subcutaneous
# Plasmodium berghei [35] = assay: Ratio of quinine hydrochloride SD90 to compound SD90 for trophozoite-induced Plasmodium berghei infected in mouse assessed as daily dose required to suppression of 90% parasite infection administered with diet for 6 days; assay type: functional
# Gallus gallus = assay: Toxicity in sporozoite-induced Plasmodium gallinaceum infected white leghorn chicken assessed as mortality at 320 mg/kg, sc administered 72 hrs after infection measured up to 6 days; assay type: organism-based; set-up: dose 320 mg/kg, route subcutaneous; details: in vivo
# Plasmodium gallinaceum [36] = assay: Antimalarial activity against sporozoite-induced Plasmodium gallinaceum infected in white leghorn chicken assessed as increase in mean survival days of host at 20 mg/kg, sc administered 72 hrs after infection relative to control; assay type: functional; details: route subcutaneous
# Plasmodium berghei [37] = assay: Antimalarial activity against Plasmodium berghei infected in mouse assessed as increase in mean survival days of host at 640 mg/kg, sc administered 72 hrs after infection relative to control; assay type: functional; details: route subcutaneous
# [38] = tested on: Mycobacterium tuberculosis; assay: Antibacterial activity against Mycobacterium tuberculosis H37Ra by gradient plate test; assay type: functional
# Plasmodium berghei [39] = assay: Antimalarial activity against Plasmodium berghei infected in mouse assessed as increase in mean survival days of host at 160 mg/kg, sc administered 72 hrs after infection relative to control; assay type: functional; details: route subcutaneous
SMILES,MST (Plasmodium berghei [1]),MST (Plasmodium berghei [2]),Activity (Plasmodium berghei [3]),Activity (Plasmodium berghei [4]),Activity (Plasmodium gallinaceum [5]),MIC (Pseudomonas aeruginosa),Activity (Plasmodium gallinaceum [6]),Activity (Plasmodium gallinaceum [8]),Activity (Plasmodium berghei [10]),MIC (Shigella sonnei),MIC (Enterococcus faecalis),MST (Plasmodium berghei [14]),MIC (Escherichia coli),MIC (Staphylococcus aureus [15]),MST (Plasmodium berghei [16]),MST (Plasmodium berghei [19]),Activity (Plasmodium gallinaceum [20]),MIC (Staphylococcus aureus [21]),Activity (Plasmodium gallinaceum [24]),Activity (Plasmodium berghei [29]),further results
Cc1ccc(Cl)cc1Sc1ccc2nc(N)nc(N)c2c1,17.8 days,25.7 days,Active,Active,Active,> 25 µg/mL,Active,Active,Active,1.5 µg/mL,< 0.25 µg/mL,9.5 days,< 0.25 µg/mL,< 0.25 µg/mL,8.8 days,4.1 days,Active,< 0.25 µg/mL,Active,Active,MST (Plasmodium gallinaceum [7]): 7.8 days; MST (Plasmodium gallinaceum [9]): 3.6 days; MST (Plasmodium gallinaceum [11]): 18 days; Activity (Plasmodium gallinaceum [12]): Active; MST (Plasmodium gallinaceum [13]): 7.4 days; MST (Plasmodium gallinaceum [17]): 0 days; Activity (Plasmodium gallinaceum [18]): Active; Activity (Plasmodium gallinaceum [22]): Active; Activity (Plasmodium berghei [23]): Active; MST (Plasmodium berghei [25]): 2.7 days; Activity (Plasmodium berghei [26]): Active; SD90 (Plasmodium berghei [27]): 0.43 mg/kg/day; MST (Plasmodium gallinaceum [28]): 5.8 days; MST (Plasmodium gallinaceum [30]): 1.4 days; Activity (Plasmodium berghei [31]): Active; MST (Plasmodium gallinaceum [32]): 0 days; Activity (Plasmodium gallinaceum [33]): Active; MST (Plasmodium gallinaceum [34]): 7 days; Ratio (Plasmodium berghei [35]): 170
COc1ccc(Sc2ccc3nc(N)nc(N)c3c2)cc1,,,Active,Active,Active,> 25 µg/mL,Active,Active,Active,1.5 µg/mL,< 0.25 µg/mL,4.8 days,< 0.25 µg/mL,< 0.25 µg/mL,9.6 days,3.8 days,Active,< 0.25 µg/mL,Active,Active,Activity (Gallus gallus): Toxic; MST (Plasmodium gallinaceum [36]): 3.2 days; MST (Plasmodium berghei [25]): 2.2 days; Activity (Plasmodium berghei [26]): Active; SD90 (Plasmodium berghei [27]): 1.2 mg/kg/day; Activity (Plasmodium berghei [31]): Active; Activity (Plasmodium gallinaceum [33]): Active; MST (Plasmodium gallinaceum [34]): 2.2 days; Ratio (Plasmodium berghei [35]): 62
Nc1nc(N)c2c(Cl)c(Sc3ccccc3)ccc2n1,3.9 days,4.7 days,,,,> 25 µg/mL,,,,< 0.25 µg/mL,< 0.25 µg/mL,,< 0.25 µg/mL,< 0.25 µg/mL,,,,< 0.25 µg/mL,,Active,MST (Plasmodium berghei [37]): 9.9 days; MIC [38]: 10 µg/mL; MST (Plasmodium berghei [39]): 13.9 days
